Results on six compounds are retold here after patent US20120101099A1, “HISTONE DEACETYLASE INHIBITORS” (ANTHEM BIOSCIENCES PRIVATE LIMITED, priority 2009, published 2012).

Molecules are shown by their SMILES. Counter-ions that a name gives are not always drawn. Like-named read-outs stand apart in the source and are kept apart here. Some results are limits rather than exact numbers.

One data set deals with PA-1. As to the kind of experiment: Cell proliferation assay (MTT). Format: cell-based. The following applies: Homo sapiens. An outline of the steps: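 MTT was added for 3 h, formazan dissolved in DMSO and A570 read. GI50 interpolated from dose-response curves of percentage growth relative to a T0 plate.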
A further data set has as its target T1, hERG (Homo sapiens, UniProt Q12809).
T1 construct: expressed in transfected cells; host or cells: CHO cells (membrane preparation)
The data set can be described thus: hERG competitive binding assay (3H-Astemizole). The following applies: hERG-CHO membrane, 1 nM 3H-Astemizole. On the procedure: The study was carried out to find our cardio safety of the test compounds. Brief procedure: The hERG competitive binding assay performed at a ligand concentration of 1 nM. The test compounds were dissolved in desired volume of 100% DMSO (stock conc. 50 mM). […] The test compound and membrane was pre-incubated for 10 Min at 30° C. 10 μL of ^3H-Astemizole was then added (final concentration of 1 nM), mixed well and incubated additionally for 90 min at 30° C. with mild shaking. At the end of reaction, binding was terminated by rapid filtration onto GF/C glass fiber filter mats, presoaked in 0.3% polyethyleneimine, followed by rapid washing 10 times with ice-cold wash buffer. Captured radiolabel was detected using a liquid scintillation counter. The percent inhibition of the compounds was calculated compared to the vehicle control.

In the next data set the target is HDAC3 (Homo sapiens, UniProt O15379). The data set can be described thus: Isoform selectivity assay, recombinant HDAC isoforms.
The target of a further data set is HDAC6 (Homo sapiens, UniProt Q9UBN7). The description is as above.
The target of a further data set is HDAC8 (Homo sapiens, UniProt Q9BY41). The description is as above.
For data set [1], the system named is A549 human lung xenograft. The data set can be described thus: In vivo anti-cancer activity using a human tumor xenograft. The conditions noted are these: for % TGI on Day 21: p.o, once daily. Also noted: species or system athymic nude mice (nu/nu). On the procedure:
The study was carried out in athymic nude mice (nu/nu) of BALB-c background at age 6-8 weeks. The animals were maintained in Individually Ventilated cages in a protected and controlled environment. All animal handling and procedures were carried out in a laminar air flow hood, under anesthesia when necessary. The studies were conducted in compliance with protocols approved by Anthem Biosciences Institutional Animal Ethics Committee (IAEC).
Human cell lines derived from tumors of lung were selected for evaluation. The tumor cells cell lines were grown and expanded in RPMI 1640 (supplemented with 1.5 mM L-glutamine and 10% FBS) Subconfluent monolayers were harvested, pelleted and resuspended in RPMI 1640 medium prior to counting on a haemocytometer. Viable cells were counted using trypan blue exclusion and a cell suspension was made in cold media with a concentration of 5×10^6/ml.
[…] of the cell suspension containing 10^6 cells of greater than 90% viability was mixed with an equal volume of Matrigel (10 mg/ml) in PBS (pH7.4) and was kept at 4 deg C. Nude mice were anaesthetized and were injected subcutaneously in the flank region with 0.1 ml using a 25 gauge needle. Animals were monitored daily during the period between inoculation and palpable tumor growth. Tumor size was measured with a digital Vernier caliper and tumor-bearing mice were randomized into control and treatment groups (n=10) when sufficient tumor volume was attained (approx. 100 mm3). The following formula was used to calculate the tumor volume:
Tumor volume=(length×width2)/2.
[…] Tumor volume and was body weight was measured three times per week.
A general note: Xenograft models place foreign cells or tissue in a host animal.

Data set [2] relates to recombinant HDAC isoforms. The data set can be described thus: Isoform selectivity assay (overall statement). The following applies: HDAC1, HDAC2, HDAC3, HDAC6, HDAC8.
Protocol: (§1) Following the HDAC inhibition assay using Hela nuclear extract, isoform selectivity was tested using recombinant HDAC isoforms (Biomol, USA).
The target of a further data set is T2, HDAC2 (Homo sapiens, UniProt Q92769).
T2 construct: purchased Biomol, USA
As to the kind of experiment: biochemical. On the procedure: Assay was performed in 96-well black microplate and total volume of the assay was 100 μL. Hela nuclear extract was diluted HDAC assay buffer (final concentration of 3.0 μg/mL). Enzyme mixture was made of 10 μL of diluted enzyme and 30 μL of HDAC buffer. 40 μl of enzyme mixture followed by 10 μL of test compound (final concentration from 0.01 to 10 μM) or vehicle (control) was added to each well. The plate was pre-incubated at 37° C. for 10 minutes. The HDAC reaction was started by adding 50 μl of HDAC substrate Boc-Lys (Ac)-AMC (Anaspec, Inc Fremont, Calif., USA). The plate was incubated at 37° C. for 45 minutes. The reaction was stopped by adding 50 μL of Trypsin stop solution and plate further incubated at 37° C. for 15 minutes. Measuring the fluorescence at excitation wavelength of 360 nm and emission wavelength of 460 nm monitored the release of AMC. Buffer alone and substrate alone served as blank.

A short description of data set [3]: Oral bioavailability and pharmacokinetics studies. The following applies: male Balb/c mouse. Type of data set: in vivo, male Balb/c mice. As to the method:
The studies were performed to determine the oral bioavailability and pharmacokinetics of test compounds in male Balb/c mice. Study was performed after obtaining the Institutional Animal Ethics Committee (IAEC) permission. Mice aged 5 to 6 weeks weighing around 25 to 30 g were used for this study. The animals were fasted overnight with free access to water. Animals were administered test compounds by oral route at a 50 mg/kg body weight (formulation: 0.5% methylcellulose in water and 0.1% tween 80. Dose volume 10 ml/kg b.w.) or intravenous route at a dose 10 mg/kg b.w. […] (formulation: 0.9% saline. Dose volume 10 ml/kg b.w.) Blood samples were collected at various time points during the next 24 hours post dose. The blood samples were centrifuged at 3000 g for 5 minutes at 4° C. and the corresponding plasma samples were collected in clean pre-labeled tubes. Then, each sample was subjected to a suitable extraction method and analysed by LC-MS/MS (API 3200 LC-MS/MS system). Data was analyzed using WinNonlin version 5.2 (Pharsight).

[4] abbreviates: Table 1, MTT, 48 hours, read-out: Cell growth inhibition (GI50 in μM) PA-1.
The mark [5] stands for this setting: Table 9, Ovary, read-out: Anti-proliferative activity (GI50) PA-1.

T1 sequence (Q12809 whole entry): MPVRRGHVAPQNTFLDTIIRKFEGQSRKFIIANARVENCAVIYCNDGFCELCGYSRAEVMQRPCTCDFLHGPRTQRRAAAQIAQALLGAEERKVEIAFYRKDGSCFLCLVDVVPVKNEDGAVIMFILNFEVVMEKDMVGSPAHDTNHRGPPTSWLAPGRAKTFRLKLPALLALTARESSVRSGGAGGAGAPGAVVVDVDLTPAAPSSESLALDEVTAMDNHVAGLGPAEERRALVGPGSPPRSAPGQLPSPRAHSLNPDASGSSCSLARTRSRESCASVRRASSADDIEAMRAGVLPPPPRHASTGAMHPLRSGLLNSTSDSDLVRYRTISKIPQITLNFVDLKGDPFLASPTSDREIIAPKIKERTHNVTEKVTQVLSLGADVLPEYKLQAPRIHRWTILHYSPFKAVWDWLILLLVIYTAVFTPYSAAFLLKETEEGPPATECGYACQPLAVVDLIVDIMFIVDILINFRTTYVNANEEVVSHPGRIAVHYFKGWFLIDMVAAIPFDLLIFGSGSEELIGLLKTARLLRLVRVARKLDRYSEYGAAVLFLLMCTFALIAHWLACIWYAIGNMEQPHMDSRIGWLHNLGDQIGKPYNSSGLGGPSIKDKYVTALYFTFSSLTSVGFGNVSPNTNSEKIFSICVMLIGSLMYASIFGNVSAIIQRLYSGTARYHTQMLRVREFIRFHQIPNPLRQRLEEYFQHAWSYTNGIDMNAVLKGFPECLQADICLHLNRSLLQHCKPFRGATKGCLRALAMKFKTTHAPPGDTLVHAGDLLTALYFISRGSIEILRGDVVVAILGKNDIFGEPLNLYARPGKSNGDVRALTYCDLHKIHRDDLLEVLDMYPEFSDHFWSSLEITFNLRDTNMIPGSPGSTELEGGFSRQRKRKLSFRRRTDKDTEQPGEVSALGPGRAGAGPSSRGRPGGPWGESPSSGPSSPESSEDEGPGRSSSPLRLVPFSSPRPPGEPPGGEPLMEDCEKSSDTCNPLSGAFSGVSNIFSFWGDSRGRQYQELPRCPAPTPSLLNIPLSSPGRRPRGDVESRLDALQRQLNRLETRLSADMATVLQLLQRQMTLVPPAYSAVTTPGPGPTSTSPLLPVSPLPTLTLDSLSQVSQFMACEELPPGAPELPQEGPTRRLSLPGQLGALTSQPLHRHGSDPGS
HDAC8, sequence (Q9BY41 whole entry): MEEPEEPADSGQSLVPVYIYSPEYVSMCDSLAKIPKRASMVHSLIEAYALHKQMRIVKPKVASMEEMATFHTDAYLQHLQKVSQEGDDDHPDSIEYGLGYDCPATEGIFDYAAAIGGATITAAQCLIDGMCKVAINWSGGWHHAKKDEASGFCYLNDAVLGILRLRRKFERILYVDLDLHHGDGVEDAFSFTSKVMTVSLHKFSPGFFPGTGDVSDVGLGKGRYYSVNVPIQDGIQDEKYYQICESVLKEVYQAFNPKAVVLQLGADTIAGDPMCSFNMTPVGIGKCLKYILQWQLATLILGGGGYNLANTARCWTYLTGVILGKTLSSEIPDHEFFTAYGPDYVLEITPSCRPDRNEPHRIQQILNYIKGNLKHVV
T2 sequence (Q92769 whole entry): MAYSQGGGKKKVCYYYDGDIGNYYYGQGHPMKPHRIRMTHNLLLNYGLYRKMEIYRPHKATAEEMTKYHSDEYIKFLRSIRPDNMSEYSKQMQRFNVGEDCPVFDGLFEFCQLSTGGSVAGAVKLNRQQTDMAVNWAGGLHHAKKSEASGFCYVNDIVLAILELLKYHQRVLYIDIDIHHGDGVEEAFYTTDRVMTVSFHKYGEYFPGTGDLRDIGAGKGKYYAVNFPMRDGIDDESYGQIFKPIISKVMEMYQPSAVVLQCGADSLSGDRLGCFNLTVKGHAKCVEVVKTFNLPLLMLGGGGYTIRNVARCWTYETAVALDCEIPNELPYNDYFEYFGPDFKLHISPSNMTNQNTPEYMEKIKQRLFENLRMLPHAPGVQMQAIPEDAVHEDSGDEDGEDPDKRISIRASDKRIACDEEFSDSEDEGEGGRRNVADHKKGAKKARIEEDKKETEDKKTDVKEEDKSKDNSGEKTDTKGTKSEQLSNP
HDAC6, sequence (Q9UBN7 whole entry): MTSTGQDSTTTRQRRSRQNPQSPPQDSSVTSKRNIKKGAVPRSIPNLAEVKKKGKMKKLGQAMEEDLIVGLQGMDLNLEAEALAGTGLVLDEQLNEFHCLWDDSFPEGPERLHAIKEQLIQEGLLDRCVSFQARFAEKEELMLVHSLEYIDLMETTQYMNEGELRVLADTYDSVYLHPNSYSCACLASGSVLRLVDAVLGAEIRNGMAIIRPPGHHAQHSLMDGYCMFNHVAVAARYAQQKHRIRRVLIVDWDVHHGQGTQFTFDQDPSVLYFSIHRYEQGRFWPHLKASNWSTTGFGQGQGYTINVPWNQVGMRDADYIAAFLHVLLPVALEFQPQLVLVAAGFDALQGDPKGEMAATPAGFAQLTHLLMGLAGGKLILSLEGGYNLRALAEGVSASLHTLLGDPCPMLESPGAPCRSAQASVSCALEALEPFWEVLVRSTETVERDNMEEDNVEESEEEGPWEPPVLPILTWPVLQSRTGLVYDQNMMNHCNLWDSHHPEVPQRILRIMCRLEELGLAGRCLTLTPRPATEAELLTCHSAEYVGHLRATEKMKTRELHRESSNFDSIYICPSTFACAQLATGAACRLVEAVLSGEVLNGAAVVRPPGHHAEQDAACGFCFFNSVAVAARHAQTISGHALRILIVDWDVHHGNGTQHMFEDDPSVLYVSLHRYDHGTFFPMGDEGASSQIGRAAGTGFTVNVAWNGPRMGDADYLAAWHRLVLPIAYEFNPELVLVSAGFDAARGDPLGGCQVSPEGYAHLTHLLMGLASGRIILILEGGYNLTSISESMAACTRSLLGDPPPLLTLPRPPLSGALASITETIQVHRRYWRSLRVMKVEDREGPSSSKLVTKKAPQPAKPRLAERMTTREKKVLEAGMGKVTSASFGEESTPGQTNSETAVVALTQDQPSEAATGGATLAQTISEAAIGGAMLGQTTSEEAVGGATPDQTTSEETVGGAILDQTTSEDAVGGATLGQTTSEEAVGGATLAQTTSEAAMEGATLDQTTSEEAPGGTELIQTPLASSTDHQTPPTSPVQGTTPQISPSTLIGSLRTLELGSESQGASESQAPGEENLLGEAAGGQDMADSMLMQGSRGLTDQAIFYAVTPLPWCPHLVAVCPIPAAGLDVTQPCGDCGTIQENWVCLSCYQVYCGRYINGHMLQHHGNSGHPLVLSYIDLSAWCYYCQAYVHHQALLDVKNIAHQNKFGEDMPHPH
HDAC3, sequence (O15379 whole entry, canonical isoform): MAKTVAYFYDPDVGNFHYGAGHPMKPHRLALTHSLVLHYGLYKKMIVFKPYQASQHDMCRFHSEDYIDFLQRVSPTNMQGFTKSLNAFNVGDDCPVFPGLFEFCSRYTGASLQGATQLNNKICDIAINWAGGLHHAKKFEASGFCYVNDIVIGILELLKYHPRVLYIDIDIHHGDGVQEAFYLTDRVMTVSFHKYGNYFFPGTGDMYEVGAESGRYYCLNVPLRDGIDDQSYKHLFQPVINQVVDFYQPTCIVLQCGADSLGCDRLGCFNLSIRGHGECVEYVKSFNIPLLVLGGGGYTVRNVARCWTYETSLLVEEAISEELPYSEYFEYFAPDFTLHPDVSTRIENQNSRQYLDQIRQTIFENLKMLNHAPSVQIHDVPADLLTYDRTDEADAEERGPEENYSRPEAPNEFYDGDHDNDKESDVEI
Protocol for HDAC3: as §1
Protocol for HDAC6: as §1
Protocol for HDAC8: as §1

In general, GI50 refers to the concentration that inhibits growth by half. As usually defined, the IC50 is the concentration that inhibits the measured activity by half. `O=C(NO)c1ccc(Cn2cc(-c3ccc(CN4CCOCC4)cc3)nn2)cc1` [Example 9, N-Hydroxy-4-[4-(4-morpholin-4-ylmethyl-phenyl)-[1,2,3]triazol-1-ylmethyl]-benzamide]: the GI50 in the data set with PA-1 (setting [4]) is 0.22 ± 0.03 µM; in the data set on PA-1 (setting [5]) it was 0.2 ± 0.037 µM. The compound also registered an IC50 on hERG greater than 100 µM.

Consider `CN(C)Cc1ccc(-c2cn(Cc3ccc(/C=C/C(=O)NO)cc3)nn2)cc1` [Example 21], for which the results for the GI50 in the data set with PA-1 (setting [4]) and with PA-1 (setting [5]) were 0.11 ± 0.04 µM and 0.1 ± 0.01 µM, respectively. This compound registered an IC50 at hERG of 42.6 µM.

Take `O=C(/C=C/c1ccc(Cn2cc(-c3ccc(CN4CCCC4)cc3)nn2)cc1)NO` [Example 16, N-Hydroxy-3-{4-[4-(4-pyrrolidin-1-ylmethyl-phenyl)-[1,2,3]triazol-1-ylmethyl]-phenyl}-acrylamide]: the GI50 in the data set with PA-1 (setting [4]) turned out to be 0.09 ± 0.04 µM; with PA-1 (setting [5]) it was 0.08 ± 0.04 µM. This compound yielded an IC50 on hERG greater than 100 µM.

`O=C(NO)c1ccc(Cn2cc(-c3ccc(CN4CCCC4)cc3)nn2)cc1` [Example 8, N-Hydroxy-4-[4-(4-pyrrolidin-1-ylmethyl-phenyl)-[1,2,3]triazol-1-ylmethyl]-benzamide]: the IC50 at HDAC3 was 2 nM; on HDAC6, 11 nM; at HDAC8, 282 nM; on hERG, 19.9 µM; against HDAC2, 29 nM. In addition, the GI50 in the data set on PA-1 (setting [4]) came out at 0.15 ± 0.05 µM; with PA-1 (setting [5]) it was 0.1 ± 0.01 µM. In addition, the “% TGI on Day 21” value in data set [1] (12.5 mg/kg, listed as Ex. 8) is recorded as 27.3%; in [1] (12.5 mg/kg, listed as Ex.8), 27%; in data set [1] (25 mg/kg, listed as Ex. 8), 36.9%; in data set [1] (25 mg/kg, listed as Ex.8), 32%; in [1] (50 mg/kg, listed as Ex. 8), 52.1%; in [1] (50 mg/kg, listed as Ex.8) it was 57%. In addition, the “body weight compared to the vehicle control group” value in data set [1] (21 days oral treatment) is “no significant reduction in body weight”. Moreover, the “isoform selectivity” value in data set [2] is given as “pan-HDAC inhibitor”.

Turning to `O=C(/C=C/c1cccc(Cn2cc(-c3ccc(CN4CCOCC4)cc3)nn2)c1)NO` [Example 25, N-Hydroxy-3-{3-[4-(4-morpholin-4-ylmethyl-phenyl)-[1,2,3]triazol-1-ylmethyl]-phenyl}-acrylamide hydrochloride], the GI50 with PA-1 (setting [4]) and in the data set with PA-1 (setting [5]) was 0.04 ± 0.01 µM each time. The compound also displayed an IC50 at hERG greater than 100 µM.

Usually bioavailability stands for the share of a dose that reaches the circulation, judged against a reference dose that is usually intravenous. A high value points to much systemic uptake. For orientation: Cmax means the maximum level reached in the sampled fluid or tissue. As a reminder, the Tmax is the time at which the peak concentration occurs. Consider `O=C(CCCCCCC(=O)Nc1ccccc1)NO` [SAHA, Suberoylanilide Hydroxamic Acid, reference compound], for which the “% TGI on Day 21” value in data set [1] (150 mg/kg) amounted to 53.6%. Also, in data set [3] (oral 50 mg/kg), the “AUC last 0 to 24 h” value amounted to 347 ng·h/mL and the T1/2 came out at 48 min. The bioavailability in data set [3] (plasma, oral 50 mg/kg vs intravenous) was 11 ± 3%. In addition, in data set [3] (plasma, oral 50 mg/kg), the concentration peaked (Cmax) at 580 ng/mL and the Tmax was 4.8 min.
